Columns and labels:
Assay type in all cases: physicochemical
[1] = Storage stability of M6G base (general statement)
[2] = Stability of M6G salts at room temperature over 6 years, HPLC
[3] = Colour of solution by visible spectrophotometry on storage (Example 3); details: 5% w/v solution in water
Summary of the method: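 5% w/v aqueous solution, absorbance at 420 nm in a 1 cm silica cell. Samples were stored in argon-flushed brown opaque HDPE bottles at 25° C./60% RH, 40° C./75% RH and 60° C.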

[4] = Stability indicating HPLC assay and related substances on storage (Example 3)
[5] = Visual appearance on storage (Example 3)
Summary of the method: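 Aliquots (900 mg) kept at 2-8 °C beforehand were stored in argon-flushed brown opaque HDPE bottles at 25 °C/60% RH, 40 °C/75% RH and 60 °C. Visual appearance was assessed at set time points.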

[6] = Water content by Karl Fisher analysis on storage (Example 3)
Summary of the method: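 900 mg aliquots were held in argon-flushed brown opaque HDPE bottles at 25 °C/60% RH, 40 °C/75% RH and 60 °C. At each time point, water content (% w/w) was determined in duplicate on about 100 mg of equilibrated material by Karl Fischer titration.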

CN1CC[C@]23c4c5ccc(O)c4O[C@H]2[C@@H](O[C@@H]2O[C@H](C(=O)O)[C@@H](O)[C@H](O)[C@H]2O)C=C[C@H]3[C@H]1C5 [Morphine-6-glucuronide base, morphine-6-β-D-glucuronide]
stability on storage ([1]; stored at room temperature): does degrade
stability on storage ([1]; stored at −20° C.): stable
HN-33177 ([2]; 0 years): 0.7%
Unknown related substances (sum area %) ([2]; 0 years): <0.1 area %
Assay M6G corr. ([2]; 0 years, content calculated as M6G derivative): 98.2%
Assay M6G corr. ([2]; 5 years at ambient temperature): 81.2%
HN-33177 ([2]; 5 years at ambient temperature): 0.8%
Morphine ([2]; 5 years at ambient temperature): 0.3%
Unknown related substances (sum area %) ([2]; 5 years at ambient temperature): 11.8 area %
Colour ([3]; 1 month, 25° C./60% RH): 0.040 Abs@420 nm
Colour ([3]; 1 month, 40° C./75% RH): 0.182 Abs@420 nm
Colour ([3]; 1 month, 60° C.): 0.541 Abs@420 nm
Colour ([3]; 3 months, 25° C./60% RH): 0.132 Abs@420 nm
Colour ([3]; 3 months, 40° C./75% RH): 0.680 Abs@420 nm
Colour ([3]; Initial): 0.017 Abs@420 nm
Known Related Substances HN33177 ([4]; 1 month, 25° C./60% RH): 0.88%
Known Related Substances HN75083 ([4]; 1 month, 25° C./60% RH): 0.05%
M6G Assay, Anhydrous basis ([4]; 1 month, 25° C./60% RH): 99.61 % w/w
M6G Assay, As is basis ([4]; 1 month, 25° C./60% RH): 90.77 % w/w
M6G Assay, Corrected for the salt form ([4]; 1 month, 25° C./60% RH): 99.61 % w/w
Total Known ([4]; 1 month, 25° C./60% RH): 0.93%
Total Related Substances ([4]; 1 month, 25° C./60% RH): 1.00%
Total Unknown ([4]; 1 month, 25° C./60% RH): 0.07%
Known Related Substances HN33177 ([4]; 1 month, 40° C./75% RH): 0.85%
Known Related Substances HN67003 ([4]; 1 month, 40° C./75% RH): 0.05%
Known Related Substances HN75083 ([4]; 1 month, 40° C./75% RH): 0.03%
M6G Assay, Anhydrous basis ([4]; 1 month, 40° C./75% RH): 99.45 % w/w
M6G Assay, As is basis ([4]; 1 month, 40° C./75% RH): 89.94 % w/w
M6G Assay, Corrected for the salt form ([4]; 1 month, 40° C./75% RH): 99.45 % w/w
Total Known ([4]; 1 month, 40° C./75% RH): 0.93%
Total Related Substances ([4]; 1 month, 40° C./75% RH): 1.27%
Total Unknown ([4]; 1 month, 40° C./75% RH): 0.34%
Known Related Substances HN33177 ([4]; 1 month, 60° C.): 0.83%
Known Related Substances HN67003 ([4]; 1 month, 60° C.): 0.19%
Known Related Substances HN75083 ([4]; 1 month, 60° C.): 0.02%
M6G Assay, Anhydrous basis ([4]; 1 month, 60° C.): 96.18 % w/w
M6G Assay, As is basis ([4]; 1 month, 60° C.): 89.31 % w/w
M6G Assay, Corrected for the salt form ([4]; 1 month, 60° C.): 96.18 % w/w
Total Known ([4]; 1 month, 60° C.): 1.04%
Total Related Substances ([4]; 1 month, 60° C.): 2.31%
Total Unknown ([4]; 1 month, 60° C.): 1.27%
stability based on % w/w assay ([4]; 3 month assay data): most stable
Known Related Substances HN33177 ([4]; 3 months, 25° C./60% RH): 0.86%
Known Related Substances HN67003 ([4]; 3 months, 25° C./60% RH): 0.04%
M6G Assay, Anhydrous basis ([4]; 3 months, 25° C./60% RH): 100.27 % w/w
M6G Assay, As is basis ([4]; 3 months, 25° C./60% RH): 91.84 % w/w
M6G Assay, Corrected for the salt form ([4]; 3 months, 25° C./60% RH): 100.27 % w/w
Total Known ([4]; 3 months, 25° C./60% RH): 0.90%
Total Related Substances ([4]; 3 months, 25° C./60% RH): 1.42%
Total Unknown ([4]; 3 months, 25° C./60% RH): 0.52%
Known Related Substances HN33177 ([4]; 3 months, 40° C./75% RH): 0.95%
Known Related Substances HN67003 ([4]; 3 months, 40° C./75% RH): 0.23%
Known Related Substances HN75076 ([4]; 3 months, 40° C./75% RH): 0.01%
Known Related Substances Morphine ([4]; 3 months, 40° C./75% RH): 0.07%
M6G Assay, Anhydrous basis ([4]; 3 months, 40° C./75% RH): 97.15 % w/w
M6G Assay, As is basis ([4]; 3 months, 40° C./75% RH): 88.67 % w/w
M6G Assay, Corrected for the salt form ([4]; 3 months, 40° C./75% RH): 97.15 % w/w
Total Known ([4]; 3 months, 40° C./75% RH): 1.26%
Total Related Substances ([4]; 3 months, 40° C./75% RH): 4.34%
Total Unknown ([4]; 3 months, 40° C./75% RH): 3.08%
increase in the amount of degradation products as measured by HPLC ([4]; 3 months, 40° C./75% RH): approximately 3%
stability assessment ([4]; 25° C./60% RH, three months): relatively stable
stability assessment ([4]; 40° C./75% RH over 3 months (base also 60° C. over 1 month)): shows signs of degradation
Known Related Substances HN33177 ([4]; Initial): 0.87%
Known Related Substances HN67003 ([4]; Initial): 0.05%
Known Related Substances HN75083 ([4]; Initial): 0.06%
M6G Assay, Anhydrous basis ([4]; Initial): 99.79 % w/w
M6G Assay, As is basis ([4]; Initial): 91.07 % w/w
M6G Assay, Corrected for the salt form ([4]; Initial): 99.79 % w/w
Total Known ([4]; Initial): 0.98%
Total Related Substances ([4]; Initial): 0.98%
Total Unknown ([4]; Initial): 0.00%
Appearance ([5]; 1 month, 25° C./60% RH): White crystalline powder
Appearance ([5]; 1 month, 40° C./75% RH): Pale yellow crystalline powder
Appearance ([5]; 1 month, 60° C.): Yellow crystalline powder
Appearance ([5]; 3 months, 25° C./60% RH): White crystalline powder
Appearance ([5]; 3 months, 25° C./60% RH, listed as base): white crystalline solids
Appearance ([5]; 3 months, 40° C./75% RH): Yellow crystalline powder
Appearance ([5]; Initial): White crystalline powder
Moisture ([6]; 1 month, 25° C./60% RH): 9.00 % w/w
Moisture ([6]; 1 month, 40° C./75% RH): 9.68 % w/w
Moisture ([6]; 1 month, 60° C.): 8.21 % w/w
Moisture ([6]; 3 months, 25° C./60% RH): 9.53 % w/w
Moisture ([6]; 3 months, 40° C./75% RH): 9.85 % w/w
Moisture ([6]; Initial): 9.80 % w/w
moisture content across storage conditions ([6]; regardless of storage condition): reasonably consistent

Source: patent US20060166900A1, “Salt of morphine-6-glucuronide” (CeNeS Limited, priority 2002, published 2006)
